Patent US8410302B2, “Methoxyimino compounds and fungicide composition comprising same” (Kyung Nong Corporation, priority 2007, dated 2013)
Read-outs that look alike come from different tables or passages of the source.

Legend:
Botrytis cinerae = assay: Fungicidal activity against cucumber gray mold rot (CGM) disease, control value; assay type: in vivo; details: for pest or weed control at 100 ppm / CGM control value (C.V.): 100 ppm
Phytophthora infestans = assay: whole plant or invertebrate; assay type: in vivo; details: for TLB control value (C.V.): tomato late blight
[1] = test system: Pyricularia oryzae Carvara KA301; assay: whole plant or invertebrate; assay type: in vivo; details: for pest or weed control at 2 ppm / pest or weed control at 10 ppm / pest or weed control at 50 ppm / pest or weed control at 100 ppm: Pyricularia oryzae, read-out: RCB control value (C.V.); for RCB control value (C.V.): rice blast
Erysiphae graminis = assay: Fungicidal activity against barley powdery mildew (BPM) disease, control value; assay type: in vivo
Rhizoctonia solani AG-1 = assay: Fungicidal activity against rice sheath blight (RSB) disease, control value; details: for RSB control value (C.V.): 100 ppm, rice sheath blight
Puccinia recondita = assay: Fungicidal activity against wheat leaf rust (WLR) disease, control value; assay type: in vivo
[2] = Botrytis, cucumber gray mold rot, read-out: CGM control value (C.V.)
[3] = Phytophthora infestans, in Solanum lycopersicum, read-out: TLB control value (C.V.)
[4] = 168 h, 2 ppm, read-out: BPM control value (C.V.)
[5] = Hordeum vulgare, 168 h, 100 ppm, barley powdery mildew, read-out: BPM control value (C.V.)
[6] = Rhizoctonia solani, AG1, in Oryza sativa, read-out: RSB control value (C.V.)
[7] = 100 ppm, wheat leaf rust, read-out: WLR control value (C.V.)
[8] = Puccinia recondita, 2 ppm, read-out: WLR control value (C.V.)
[9] = Botrytis, read-out: CGM control value (C.V.)
[10] = 168 h, 10 ppm, read-out: BPM control value (C.V.)
[11] = 168 h, 50 ppm, read-out: BPM control value (C.V.)
[12] = 168 h, 100 ppm, read-out: BPM control value (C.V.)
[13] = Puccinia recondita, 10 ppm, read-out: WLR control value (C.V.)
[14] = Puccinia recondita, 50 ppm, read-out: WLR control value (C.V.)
[15] = Puccinia recondita, 100 ppm, read-out: WLR control value (C.V.)

Compound | pest or weed control at 10 ppm (Phytophthora infestans; [3]) | pest or weed control at 50 ppm (Phytophthora infestans; [3]) | pest or weed control at 100 ppm (Phytophthora infestans; [3]) | pest or weed control at 2 ppm [1] | pest or weed control at 10 ppm [1] | pest or weed control at 50 ppm [1] | pest or weed control at 100 ppm [1] | pest or weed control at 2 ppm (Erysiphae graminis; [4]) | pest or weed control at 2 ppm (Rhizoctonia solani AG-1; [6]) | pest or weed control at 10 ppm (Rhizoctonia solani AG-1; [6]) | pest or weed control at 50 ppm (Rhizoctonia solani AG-1; [6]) | pest or weed control at 100 ppm (Rhizoctonia solani AG-1; [6]) | pest or weed control at 2 ppm (Puccinia recondita; [8]) | pest or weed control at 10 ppm (Erysiphae graminis; [10]) | pest or weed control at 50 ppm (Erysiphae graminis; [11]) | pest or weed control at 10 ppm (Puccinia recondita; [13]) | pest or weed control at 50 ppm (Puccinia recondita; [14]) | CGM control value (C.V.) (Botrytis cinerae; cucumber gray mold rot) | TLB control value (C.V.) (Phytophthora infestans; 100 ppm) | RCB control value (C.V.) ([1]; 50 ppm) | other results
CO/N=C(/C(=O)OC)c1ccccc1COc1ccc(C=C(Cl)Cl)cc1Br [Example 53, methyl-(E)-2-(2-((2-bromo-4-(2,2-dichlorovinyl)phenoxy)methyl)phenyl)-2-methoxyiminoacetate] | 99% | 100% | 100% | 70% | 97% | 100% | 100% | 100% | 85% | 98% | 100% | 100% | 100% |  |  |  |  |  |  |  | pest or weed control at 100 ppm (Botrytis cinerae; [2]): 50%; pest or weed control at 2 ppm (Phytophthora infestans; [3]): 90%; pest or weed control at 10 ppm (Erysiphae graminis; Hordeum vulgare, 168 h, 10 ppm, barley powdery mildew, read-out: BPM control value (C.V.)): 100%; pest or weed control at 50 ppm (Erysiphae graminis; Hordeum vulgare, 168 h, 50 ppm, barley powdery mildew, read-out: BPM control value (C.V.)): 100%; pest or weed control at 100 ppm (Erysiphae graminis; [5]): 100%; pest or weed control at 10 ppm (Puccinia recondita; 10 ppm, wheat leaf rust, read-out: WLR control value (C.V.)): 100%; pest or weed control at 50 ppm (Puccinia recondita; 50 ppm, wheat leaf rust, read-out: WLR control value (C.V.)): 100%; pest or weed control at 100 ppm (Puccinia recondita; [7]): 100%
CO/N=C(/C(=O)OC)c1ccccc1COc1cccc(C=C(Br)Br)c1 [Example 5, methyl-(E)-2-(2-((3-(2,2-dibromovinyl)phenoxy)methyl)phenyl)-2-methoxyiminoacetate] |  | 55% | 93% | 90% | 97% | 100% | 100% |  |  |  |  | 32% |  |  |  |  |  |  |  |  | pest or weed control at 100 ppm (Botrytis cinerae; [2]): 34%; pest or weed control at 100 ppm (Erysiphae graminis; [5]): 87%; pest or weed control at 100 ppm (Puccinia recondita; [7]): 92%
CNC(=O)/C(=N/OC)c1ccccc1COc1ccc(C)cc1C=C(Br)Br [Example 70, (E)-2-(2-((2-(2,2-dibromovinyl)-4-methylphenoxy)methyl)phenyl)-2-methoxyimino-N-methylacetamide] | 35% | 90% | 100% | 100% | 100% | 100% | 100% | 100% | 100% | 100% | 100% | 100% | 100% | 100% | 100% | 100% | 100% |  |  |  | pest or weed control at 100 ppm (Botrytis cinerae; [9]): 50%; pest or weed control at 100 ppm (Erysiphae graminis; [12]): 100%; pest or weed control at 100 ppm (Puccinia recondita; [15]): 100%
OC(c1ccc(Cl)cc1)(c1cncnc1)c1ccccc1Cl (centres unmarked) [Fenarimol, reference compound] | 80% | 95% |  |  | 0% | 20% |  | 100% | 40% | 85% | 100% |  | 80% | 100% | 100% | 100% | 100% |  |  |  | pest or weed control at 0.4 ppm (Botrytis cinerae; Botrytis, 0.4 ppm, read-out: CGM control value (C.V.)): 7%; pest or weed control at 2 ppm (Botrytis cinerae; Botrytis, 2 ppm, read-out: CGM control value (C.V.)): 7%; pest or weed control at 10 ppm (Botrytis cinerae; Botrytis, 10 ppm, read-out: CGM control value (C.V.)): 7%; pest or weed control at 50 ppm (Botrytis cinerae; Botrytis, 50 ppm, read-out: CGM control value (C.V.)): 30%; pest or weed control at 0.4 ppm (Phytophthora infestans; [3]): 65%; pest or weed control at 2 ppm (Phytophthora infestans; [3]): 75%; pest or weed control at 0.4 ppm (Erysiphae graminis; 168 h, 0.4 ppm, read-out: BPM control value (C.V.)): 95%; pest or weed control at 0.4 ppm (Rhizoctonia solani AG-1; [6]): 30%; pest or weed control at 0.4 ppm (Puccinia recondita; Puccinia recondita, 0.4 ppm, read-out: WLR control value (C.V.)): 15%
CO/N=C(/C(=O)OC)c1ccccc1CON=C(C)c1ccc(C=C(F)Cl)cc1 [Example 33, methyl-(E)-2-[[[[[2-[4-(2-chloro-2-fluorovinyl)phenyl](1-methyl)methylidene]amino]oxy]methyl]phenyl]-2-methoxyiminoacetate] |  |  |  |  |  |  |  |  |  |  |  |  |  |  |  |  |  | 15% | 60% | 70% | RCB control value (C.V.) ([1]; 100 ppm): 95%; BPM control value (C.V.) (Erysiphae graminis; 100 ppm, barley powdery mildew): 80%; RSB control value (C.V.) (Rhizoctonia solani AG-1): 67%; WLR control value (C.V.) (Puccinia recondita; 50 ppm, wheat leaf rust): 40%; WLR control value (C.V.) (Puccinia recondita; 100 ppm, wheat leaf rust): 90%
CO/N=C(/C(=O)OC)c1ccccc1CON=C(C)c1ccc(C=C(Cl)Cl)cc1 [Example 21, methyl-(E)-2-[[[[[2-[4-(2,2-dichlorovinyl)phenyl](1-methyl)methylidene]amino]oxy]methyl]phenyl]-2-methoxyiminoacetate] |  |  |  |  |  |  |  |  |  |  |  |  |  |  |  |  |  | 50% | 98% | 100% | TLB control value (C.V.) (Phytophthora infestans; 2 ppm): 0%; TLB control value (C.V.) (Phytophthora infestans; 10 ppm): 35%; TLB control value (C.V.) (Phytophthora infestans; 50 ppm): 95%; RCB control value (C.V.) ([1]; 2 ppm): 30%; RCB control value (C.V.) ([1]; 10 ppm): 90%; RCB control value (C.V.) ([1]; 100 ppm): 100%; BPM control value (C.V.) (Erysiphae graminis; 2 ppm, barley powdery mildew): 20%; BPM control value (C.V.) (Erysiphae graminis; 10 ppm, barley powdery mildew): 50%; BPM control value (C.V.) (Erysiphae graminis; 50 ppm, barley powdery mildew): 95%; BPM control value (C.V.) (Erysiphae graminis; 100 ppm, barley powdery mildew): 95%; RSB control value (C.V.) (Rhizoctonia solani AG-1): 60%; WLR control value (C.V.) (Puccinia recondita; 2 ppm, wheat leaf rust): 40%; WLR control value (C.V.) (Puccinia recondita; 10 ppm, wheat leaf rust): 90%; WLR control value (C.V.) (Puccinia recondita; 50 ppm, wheat leaf rust): 100%; WLR control value (C.V.) (Puccinia recondita; 100 ppm, wheat leaf rust): 100%
CO/N=C(/C(=O)OC)c1ccccc1CON=C(C)c1ccc(C=C(F)F)cc1 [Example 29, methyl-(E)-2-[[[[[2-[4-(2,2-difluorovinyl)phenyl](1-methyl)methylidene]amino]oxy]methyl]phenyl]-2-methoxyiminoacetate] |  |  |  |  |  |  |  |  |  |  |  |  |  |  |  |  |  | 24% | 100% | 100% | TLB control value (C.V.) (Phytophthora infestans; 2 ppm): 100%; TLB control value (C.V.) (Phytophthora infestans; 10 ppm): 100%; TLB control value (C.V.) (Phytophthora infestans; 50 ppm): 100%; RCB control value (C.V.) ([1]; 2 ppm): 100%; RCB control value (C.V.) ([1]; 10 ppm): 100%; RCB control value (C.V.) ([1]; 100 ppm): 100%; BPM control value (C.V.) (Erysiphae graminis; 2 ppm, barley powdery mildew): 15%; BPM control value (C.V.) (Erysiphae graminis; 10 ppm, barley powdery mildew): 60%; BPM control value (C.V.) (Erysiphae graminis; 50 ppm, barley powdery mildew): 93%; BPM control value (C.V.) (Erysiphae graminis; 100 ppm, barley powdery mildew): 100%; RSB control value (C.V.) (Rhizoctonia solani AG-1): 30%; WLR control value (C.V.) (Puccinia recondita; 2 ppm, wheat leaf rust): 100%; WLR control value (C.V.) (Puccinia recondita; 10 ppm, wheat leaf rust): 100%; WLR control value (C.V.) (Puccinia recondita; 50 ppm, wheat leaf rust): 100%; WLR control value (C.V.) (Puccinia recondita; 100 ppm, wheat leaf rust): 100%
CNC(=O)/C(=N/OC)c1ccccc1COc1ccc(C=C(Br)Br)c(Cl)c1 [Example 82, (E)-2-(2-((4-(2,2-dibromovinyl)-3-chlorophenoxy)methyl)phenyl)-2-methoxyimino-N-methylacetamide] | 30% | 90% | 90% | 70% | 90% | 100% | 100% | 5% | 70% | 90% | 99% | 100% | 98% | 90% | 95% | 100% | 100% |  |  |  | pest or weed control at 100 ppm (Botrytis cinerae; [9]): 0%; pest or weed control at 100 ppm (Erysiphae graminis; [12]): 95%; pest or weed control at 100 ppm (Puccinia recondita; [15]): 100%
